Where a name gives a salt, the structure may show the parent alone. Read-outs that look alike come from different tables or passages of the source.
Experiments:
Type in all cases: in vivo
[1] = system: acetylcholine-induced abdominal constriction; assay: acetylcholine-induced abdominal constriction test (ACH); conditions: mice; for inhibition in vivo at 100 mg/kg / ED50: Mus musculus; for inhibition in vivo at 100 mg/kg: dose level 100, read-out: ACH percent inhibition at dose 100
From the text: J. Pharmacol. Chemotherap. 32, 295 (1968); a modification of the anti-bradykinin test, which is also a primary analgesic screening procedure, described by Berkowitz et al., J. Pharmacol. Exptl. Therap. 177, 500-508 (1971), Blane et al., J. Pharm. Pharmacol. 19, 367-373 (1967), Botha et al., Eur. J. Pharmacol. 6, 312-321 (1969) and Deffenu et al., J. Pharm. Pharmacol. 18, 135 (1966); and the Randall-Selitto analgesic test described by Randall and Selitto, Arch. Int. Pharmacodyn., 111, 409-419 (1957).
Data in the developing adjuvant arthritis (AA) and plasma fibronectin (FN) assays are expressed as percent inhibition, i.e. inhibition of non-injected paw inflammation (NIP) and injected paw (RPV) and lowering of plasma fibronectin, the asterisks * and ** indicating statistical significance at the p<0.01 and p<0.05 levels, respectively. […] Non-statistically significant results are recorded as "------ ". In the acetylcholine-induced abdominal constriction test, the test compounds were administered either as suspensions in gum tragacanth (GT) or as aqueous solutions prepared by addition of just sufficient dilute aqueous methanesulfonic acid (MS) or dilute aqueous lactic acid (LA) to dissolve the compound. The compounds are identified by the example number above where their preparations are described. All data in the anti-bradykinin, rat writhing and Randall-Selitto tests were obtained on oral administration.

[2] = system: acetic acid-induced writhing; assay: acetic acid-induced writhing assay in the rat (RW); conditions: oral administration
Experimental: (§1) Data in the developing adjuvant arthritis (AA) and plasma fibronectin (FN) assays are expressed as percent inhibition, i.e. inhibition of non-injected paw inflammation (NIP) and injected paw (RPV) and lowering of plasma fibronectin, the asterisks * and ** indicating statistical significance at the p<0.01 and p<0.05 levels, respectively. Compounds are considered active at p<0.05 level. Non-statistically significant results are recorded as "------ ". In the acetylcholine-induced abdominal constriction test, the test compounds were administered either as suspensions in gum tragacanth (GT) or as aqueous solutions prepared by addition of just sufficient dilute aqueous methanesulfonic acid (MS) or dilute aqueous lactic acid (LA) to dissolve the compound. The compounds are identified by the example number above where their preparations are described. All data in the anti-bradykinin, rat writhing and Randall-Selitto tests were obtained on oral administration.

[3] = system: adjuvant induced arthritis; assay: developing adjuvant arthritis (AA) assay; design: key: Non-statistically significant results are recorded as "------ "; conditions: arthritic rats; printed * = p<0.01, ** = p<0.05
Experimental: Antirheumatic and anti-inflammatory activities of the compounds of the invention were determined using the developing adjuvant arthritis assay in rats and the plasma fibronectin assay in arthritic rats. The developing adjuvant arthritis assay was used in conjunction with the plasma fibronectin assay as a primary screening method in the evaluation of compounds for potential use as disease modifying anti-rheumatic drugs. The procedure used to induce arthritis in rats is a modification of the methods published by Pearson, J. Chron. Dis. 16, 863-874 (1973) and by Glenn et al., Amer. J. Vet. Res. 1180-1193 (1965). Adjuvant induced arthritis bears many of the traits of rheumatoid arthritis. It is a chronic, progressive, deforming arthritis of the peripheral joints, with a primary mononuclear cell response consisting of bone and joint space invasion by pannus. In order to detect disease modifying anti-rheumatic drug activity, drug treatment is started before the disease has become irrevocably established. Since such drugs are not designed to be administered prophylactically, drug treatment of adjuvant arthritis is initiated at a time when the disease is developing but is not yet irreversible. Animals develop significant systemic arthritic disease which can be measured by swelling of the non-injected rear paw (NIP) 15 to 20 days following an initial injection on day 1 of complete Freund's adjuvant into the right hindfoot paw.
as §1

[4] = Table 9, Examples, no route marked in the cell, read-out: ACH ED50

Compound: Cc1cc2ccccc2n1CC1CN(C)CCO1 (racemic) [Preparation 1A, 1-[(4-methyl-2-morpholinyl)methyl]-2-methyl-1H-indole]
- inhibition in vivo at 100 mg/kg ([1]; Table 10, Prepn. No.): 10%

Compound: Cc1c(C(=O)c2ccccc2F)c2ccccc2n1C[C@@H]1CC[C@@H](C)N1C (relative stereo) [Example 1AD]
- ED50 [1, 4]: 34 mg/kg

Compound: COc1ccc(C(=O)c2c(C)n(C[C@@H]3CC[C@@H](C)N3Cc3ccccc3)c3ccccc23)cc1 (relative stereo) [Example 1AE]
- inhibition in vivo at 100 mg/kg ([1]; Table 9): 30%

Compound: COc1ccc(C(=O)c2c(C)n(CC3CCCN3C)c3ccccc23)cc1 (single isomer, unassigned) [2E(1), (1)1-(1-methyl-2-pyrrolidinylmethyl)-2-methyl-3-(4-methoxybenzoyl)-1H-indle hydrochloride]
- ACH ED50 ([1]; Table 9, Examples, no route marked in the cell, hydrochloride): 35 mg/kg
- RW ED50 ([2]; hydrochloride): 13 mg/kg

Compound: COc1ccc(C(=O)c2c(C)n(CC3CCCN3C)c3ccccc23)cc1 (single isomer, unassigned) [2E(d), (d)1-(1-methyl-2-pyrrolidinylmethyl)-2-methyl-3-(4-methoxy-benzoyl)-1H-inole hydorochloride]
- ED50 [1, 4]: 47 mg/kg
- ACH ED50 ([1]; Table 9, Examples, no route marked in the cell): 36 mg/kg
- RW ED50 [2]: 30 mg/kg

Compound: COc1ccc(C(=O)c2c(C)n(C3CCCN(C)C3)c3ccccc23)cc1 (stereo not shown) [2AG(b)]
- ED50 [1, 4]: 30 mg/kg

Compound: COc1ccc(C(=O)c2c(C)n(CC3CCCN3Cc3ccccc3)c3ccccc23)cc1 (stereo not shown) [Example 1AG]
- inhibition in vivo at 100 mg/kg ([1]; Table 9): 0%

Compound: COc1ccc(C(=O)c2c(C)n(C3CCN(C)CC3)c3ccccc23)cc1 [Example 1B]
- ED50 [1, 4]: 69 mg/kg
- NIP: percent inhibition of non-injected paw inflammation [3]: 88%
- RPV: percent inhibition of injected paw [3]: 65%

Compound: Cc1c(C(=O)c2ccc(O)cc2)c2ccccc2n1CC1CN(C)CCO1 (stereo not shown) [Example 1D]
- inhibition in vivo at 100 mg/kg ([1]; Table 9): 10%

Compound: COc1ccc(C(=O)c2cn(CC3CCCN(C)C3)c3ccc(F)cc23)cc1 (stereo not shown) [Example 1H]
- inhibition in vivo at 100 mg/kg ([1]; Table 9): 20%
- NIP: percent inhibition of non-injected paw inflammation [3]: 92%
- RPV: percent inhibition of injected paw [3]: 63%

Compound: Cc1c(C(=O)c2ccc(Cl)cc2)c2ccccc2n1CC1CCCN(C)C1 (stereo not shown) [Example 1L]
- ED50 [1, 4]: 62 mg/kg
- NIP: percent inhibition of non-injected paw inflammation [3]: 83%
- RPV: percent inhibition of injected paw [3]: 60%

Compound: Cc1c(C(=O)c2cccc(F)c2)c2ccccc2n1CC1CCCN(C)C1 (stereo not shown) [Example 1O]
- ED50 [1, 4]: 71 mg/kg

Compound: CN1CCCC(Cn2cc(C(=O)c3ccccc3)c3ccccc32)C1 (stereo not shown) [Example 1Q]
- ED50 [1, 4]: 45 mg/kg

Compound: CN1CCCCC(n2cc(C(=O)c3cccc4ccccc34)c3ccccc32)C1 (stereo not shown) [Example 1R]
- inhibition in vivo at 100 mg/kg ([1]; Table 9): 20%

Compound: COc1ccc(C(=O)c2c(C(C)C)n(CC3CCCN(C)C3)c3ccc(F)cc23)cc1 (stereo not shown) [Example 1S]
- ED50 [1, 4]: 21 mg/kg
- NIP: percent inhibition of non-injected paw inflammation [3]: 73%
- RPV: percent inhibition of injected paw [3]: 36%

Compound: COc1cccc(C(=O)c2c(C)n(CC3CCCN(C)C3)c3ccccc23)c1 (stereo not shown) [Example 1T]
- ED50 [1, 4]: 64 mg/kg

Compound: COc1ccc(C(=O)c2c(C(C)C)n(CC3CCCN(C)C3)c3ccccc23)cc1 (stereo not shown) [Example 1U]
- ED50 [1, 4]: 22 mg/kg

Compound: COc1ccc(C(=O)c2c(C)n(C3CCN(Cc4ccccc4)C3)c3ccccc23)cc1 (stereo not shown) [Example 1W]
- inhibition in vivo at 100 mg/kg ([1]; Table 9): 35%

Compound: COc1ccc(C(=O)c2c(C)n(CCC3CCCN3C)c3ccc(F)cc23)cc1 (stereo not shown) [Example 2A, 5-fluoro-2-methyl-1-[2-(1-methyl-2-pyrrolidinyl)ethyl]-3-(4-methoxybenzoyl)-1H-indole hydrochloride hemihydrate]
- ED50 [1, 4]: 32 mg/kg
- NIP: percent inhibition of non-injected paw inflammation [3]: 86%
- RPV: percent inhibition of injected paw [3]: 69%

Compound: CN1CCCC(Cn2cc(C(=O)c3ccccc3F)c3ccccc32)C1 (stereo not shown) [Example 2AA]
- ED50 [1, 4]: 65 mg/kg

Compound: CN1CCCCC(n2cc(C(=O)c3ccccc3F)c3ccccc32)C1 (stereo not shown) [Example 2AD]
- inhibition in vivo at 100 mg/kg ([1]; Table 9): 20%

Compound: COc1ccc(C(=O)c2c(C)n(CC3CN(C(c4ccccc4)c4ccccc4)C3)c3ccccc23)cc1 [Example 2AL]
- inhibition in vivo at 100 mg/kg ([1]; Table 9): 20%

Compound: Cc1c(C(=O)c2ccc([N+](=O)[O-])cc2)c2ccccc2n1CC1CCCN(C)C1 (stereo not shown) [Example 2AN]
- inhibition in vivo at 100 mg/kg ([1]; Table 9): 30%

Compound: COc1ccc(C(=O)c2cn(CCC3CCCN3C)c3ccc(F)cc23)cc1 (stereo not shown) [Example 2C]
- ED50 [1, 4]: 49 mg/kg
- NIP: percent inhibition of non-injected paw inflammation [3]: 55%
- RPV: percent inhibition of injected paw [3]: 27%

Compound: CCc1ccc(C(=O)c2c(C)n(CC3CCCN(C)C3)c3ccccc23)cc1 (stereo not shown) [Example 2N]
- ED50 [1, 4]: 46 mg/kg

Compound: COc1ccc(C(=O)c2cn(CCC3CCCN3C)c3ccccc23)cc1 (stereo not shown) [Example 2S]
- ED50 [1, 4]: 50 mg/kg
- NIP: percent inhibition of non-injected paw inflammation [3]: 33%
- RPV: percent inhibition of injected paw [3]: 21%

Compound: COc1ccc(C(=O)c2c(C)n(CC3CCCN(Cc4ccccc4)C3)c3ccccc23)cc1 (stereo not shown) [Example 2T]
- ACH percent inhibition at dose 300 ([1]; Table 9, dose level 300): 20%
- NIP: percent inhibition of non-injected paw inflammation [3]: 92%
- RPV: percent inhibition of injected paw [3]: 68%

Compound: CCN1CCCC1Cn1c(C)c(C(=O)c2ccc(OC)cc2)c2ccccc21 (stereo not shown) [Example 2Y]
- ED50 [1, 4]: 43 mg/kg
- NIP: percent inhibition of non-injected paw inflammation [3]: 46%
- RPV: percent inhibition of injected paw [3]: 15%

Compound: COc1ccc(C(=O)c2c(C)n(C3CSCCN(C)C3)c3ccccc23)cc1 (stereo not shown) [Example 3B]
- inhibition in vivo at 100 mg/kg ([1]; Table 9): 60%

Compound: COc1ccc(C(=O)c2c(C)n(CC3CN(C)CCS3)c3ccccc23)cc1 (stereo not shown) [Example 3C]
- ED50 [1, 4]: 30 mg/kg

Compound: CN1CCCC(n2cc(C(=O)c3ccccc3F)c3ccccc32)C1 (stereo not shown) [Example 4D]
- ACH percent inhibition at dose 10 ([1]; Table 9, dose level 10): 65%
- ACH percent inhibition at dose 30 ([1]; Table 9, dose level 30): 50%
- NIP: percent inhibition of non-injected paw inflammation [3]: 80%
- RPV: percent inhibition of injected paw [3]: --

Compound: CC(C1CCCNC1)n1cc(C(=O)c2ccccc2F)c2ccccc21 (stereo not shown) [Example 4E]
- ED50 [1, 4]: 43 mg/kg

Compound: COc1ccc(C(=O)c2c(C)n(CC3C[S+]([O-])CCN3C)c3ccccc23)cc1 (stereo not shown) [Example 6B, 2-methyl-3-(4-methoxybenzoyl)-1-[(4-methyl-3-thiomorpholinyl)methyl]-1H-indole-S-oxide]
- ED50 [1, 4]: 5 mg/kg

Compound: CCCN1CCCC(Cn2c(C)c(C(=O)c3ccc(OC)cc3)c3ccccc32)C1 (stereo not shown) [Example 7, 2-methyl-3-(4-methoxybenzoyl)-1-[(1-propyl-3-piperidinyl)methyl]-1H-indolehydrochloride]
- ED50 [1, 4]: 18 mg/kg

Compound: COc1ccc(C(=O)c2c(C)n(C3CCNC3)c3ccccc23)cc1 (stereo not shown) [Example 8B]
- ED50 [1, 4]: 29 mg/kg

Compound: COc1ccc(C(=O)c2c(C)n(CC3COCCN3C)c3ccccc23)cc1 (stereo not shown) [Example 10B, 2-methyl-3-(4-methoxybenzoyl)-1-[(4-methyl-3-morpholinyl)methyl]-1H-indole]
- ED50 [1, 4]: 29 mg/kg

Compound: CN1CCCC(Cn2ccc3cc(F)ccc32)C1 (stereo not shown) [Preparation 1D, 1-[(1-methyl-3-piperidinyl)methyl]-5-fluoro-1H-indole]
- ED50 ([1]; Table 10, Prepn. No. (intermediates of formula II), no route marked, read-out: ACH ED50): 65 mg/kg

Compound: Cc1cc2ccccc2n1CC1CCCN(C)C1.Cl (stereo not shown) [Preparation 1P, 2-methyl-1-[(1-methyl-3-piperidinyl)methyl]-1H-indole hydrochloride]
- ED50 ([1]; iv, Table 10, Prepn. No., i.v., read-out: ACH ED50 (i.v.)): 9.7 mg/kg
- ED50 ([1]; po, Table 10, Prepn. No., p.o., read-out: ACH ED50 (p.o.)): 66 mg/kg

Compound: Cc1cc2ccccc2n1CCC1CCCCN1C (stereo not shown) [Preparation 1Q, 2-methyl-1-[2-(1-methyl-2-piperidinyl)-ethyl]-1H-indole]
- inhibition in vivo at 100 mg/kg ([1]; Table 10, Prepn. No.): 30%

From patent US5817651A, “3-arylcarbonyl-1-(C-attached-N-heteryl)-1H-indoles” (Sanofi, priority 1997, dated 1998)
